Measurements: patent US8507518B2, “Method of treating mantle cell lymphoma” (Mayo Foundation for Medical Education and Research, priority 2003, dated 2013)

Assays:
[1] = Safety and tolerability in the phase II trial of CCI-779 250 mg IV weekly; format: in vivo, human
Description: (§1) Patients were treated with a flat dose of 250 mg of CCI-779 diluted in 250 mL of normal saline and delivered IV over 30 minutes. Patients were pretreated with diphenhydramine 25-50 mg IV. Treatment was weekly and a cycle was considered 4 weeks. A complete blood count was performed each week and a full dose delivered if the platelet count was ≧50,000 and the ANC≧1000 and there was no grade 3 non-hematologic toxicity (using the NCI Common Toxicity Criteria version 2). […] Patients were not to receive prophylactic white blood cell growth factors to maintain dosing but could receive them at time of neutropenia at physician discretion. Erythropoietin could be used.
All 35 patients were included in the analysis of safety and tolerability. During the 30 minute infusion, CCI-779 was well-tolerated and there were no significant toxicities that occurred. Thrombocytopenia was the cause of most dose reductions and was rapidly reversible with drug delays of typically only one week. Only three patients required platelet transfusions, and four patients required red blood cell transfusions. Thirteen patients experienced grade 3 infections without concomitant neutropenia; two patients had febrile neutropenia and three had infection (grade 3) with neutropenia. […] The conclusion was that this was idiopathic Bell's palsy and indeed it eventually resolved. A possible relationship to CCI-779 could not be established nor eliminated. The patient who experienced blurred vision was diagnosed with retinitis due to reactivation of cytomegalovirus (CMV) infection.

[2] = Stability of CCI-779 in parenteral cosolvent formulation with antioxidant/chelating agent; format: physicochemical; settings: citric acid at a concentration of less than 0.01% w/v
Excerpt: In this embodiment, the stability of a CCI-779 in parenterally acceptable alcoholic cosolvents is enhanced by addition of an antioxidant to the formulation. Acceptable antioxidants include, but are not limited to, citric acid, d,l-α-tocopherol, BHA, BHT, monothioglycerol, ascorbic acid, propyl gallate, and mixtures thereof. Generally, the parenteral formulations useful in this embodiment of the invention will contain an antioxidant component(s) in a concentration ranging from 0.001% to 1% w/v, or 0.01% to 0.5% w/v, of the cosolvent concentrate, although lower or higher concentrations may be desired. Of the antioxidants, d,l-α-tocopherol is particularly desirable and is used at a concentration of 0.01 to 0.1% w/v with a preferred concentration of 0.075% w/v of the cosolvent concentrate.
Examples of such chelating agents include, e.g., citric acid, acetic acid, and ascorbic acid (which may function as both a classic antioxidant and a chelating agent in the present formulations). Other chelating agents include such materials as are capable of binding metal ions in solution, such as ethylene diamine tetra acetic acid (EDTA), its salts, or amino acids such as glycine are capable of enhancing the stability of a CCI-779. […] Optimal concentrations for the selected antioxidant(s) can be readily determined by one of skill in the art, based upon the information provided herein.

[3] = system: mantle cell lymphoma; assay: Phase II study of low dose single-agent CCI-779, 25 mg/week, in relapsed mantle cell lymphoma; format: in vivo, human
Description: Eleven patients (4 refractory, […], ranging from 55 to 85 years old) with MCL were enrolled in a Phase II study of CCI-779 and were treated as described in Example 1 above, with the exception that they received a 10-fold lower dose than in Example 1, i.e., 25 mg/week. Eight patients (73%) were in stage 4, two (18%) in stage 3, and 4 (36%) had ≧2 extranodal sites. Patients had received a median of 3 prior therapies (range, 1-7) and 3 were refractory to their last treatment.

[4] = system: mantle cell lymphoma; assay: Phase II trial of single-agent CCI-779, 250 mg IV weekly, in relapsed mantle cell lymphoma (NCCTG); format: in vivo, human
Description: The ability of a CCI-779 to treat or inhibit mantle cell lymphoma was evaluated in a clinical trial. Briefly, 18 patients (mean age 72 years, range 38-89 years) were treated with an intravenous dose of 250 mg CCI-779 on days 1, 8, 15, and 22 of a 4 week treatment cycle, for up to a maximum of 12 cycles. Of these patients, 15 were stage IV, 2 were stage III, and 1 was stage II. […] Only 3 patients progressed before the end of the cycle. Based on the results obtained in this clinical trial, CCI-779 is useful in the treatment or inhibition of mantle cell lymphoma.
This study was conducted through the North Central Cancer Treatment Group (NCCTG) cooperative group. Patients were eligible for this trial if they had previously received therapy and had relapsed. There was no limit on the number of prior therapies. All histologies were confirmed to be mantle cell lymphoma by central pathology review. Cyclin-D1 positivity was required by immunohistochemistry or t(11;14) detected by FISH. Patients were required to have measurable disease with a lymph node or tumor mass≧2 cm or malignant lymphocytosis with an ALC≧5,000; a life expectancy of ≧3 months, ECOG performance status of 0, 1, or 2; absolute neutrophil count (ANC)≧1,000; platelets≧75,000; hemoglobin≧8 g/dL; serum creatinine≦2× the upper limit of normal (UNL); serum bilirubin≦1.5 UNL; serum cholesterol≦350 mg/dL; and triglycerides≦400 mg/dL. Patients could not have known central nervous system involvement or HIV infection.
as §1
Patients were restaged after 1, 3, and 6 cycles and the response assessed as per the international workshop criteria. [B. D. Cheson, et al., “Report of an International Workshop to Standardize Response Criteria for Non-Hodgkin's Lymphomas”, Journal of Clinical Oncology, Vol 17, Issue 4 (April), 1999: 1244]. Patients who progressed anytime or those patients with stable disease after 6 cycles went off study.
A single stage phase II study with an interim analysis was conducted to assess the proportion of previously treated mantle cell lymphoma patients who achieved a PR or better after treatment with CCI-779. This trial was designed to test the null hypothesis that the true response rate was at most 0.05. The smallest response rate that would indicate that this regimen was worth further study in this patient population was 0.20. The design was generated based on the parameters and assumptions of a two-stage Simon MinMax™ design, but where accrual was not suspended for the interim analysis. This study design required a maximum of 32 evaluable patients, where the interim analysis was performed after 18 patients had been accrued and followed for at least 24 weeks. An additional 3 patients were accrued to this cohort (for a maximum of 35 patients overall) to account for the possibilities of ineligibility, withdrawal from study prior to drug administration, or major violations. However, only the first 32 evaluable patients were used to evaluate the decision criteria for this design. At least one response in the first 18 evaluable patients needed to be observed in the interim analysis to continue accrual. At the time of the final analyses, a total of four or more responses were required to indicate that this regimen warrants further evaluation in this patient population. […]

[5] = overall, median follow-up 11 months

CO[C@H]1C[C@@H]2CC[C@@H](C)[C@@](O)(O2)C(=O)C(=O)N2CCCC[C@H]2C(=O)O[C@H]([C@H](C)C[C@@H]2CC[C@@H](OC(=O)C(C)(CO)CO)[C@H](OC)C2)CC(=O)[C@H](C)/C=C(\C)[C@@H](O)[C@@H](OC)C(=O)[C@H](C)C[C@H](C)/C=C/C=C/C=C/1C [CCI-779, rapamycin 42-ester with 3-hydroxy-2-(hydroxymethyl)-2-methylpropionic acid]
adverse event, all grades: AST elevations ([1]; 35 patients): 43% | adverse event, all grades: abnormal taste ([1]; 35 patients): 43% | adverse event, all grades: anemia ([1]; 35 patients): 66% | adverse event, all grades: fatigue ([1]; 35 patients): 66% | adverse event, all grades: hypercholesterolemia ([1]; 35 patients): 40% | adverse event, all grades: hyperglycemia ([1]; 35 patients): 91% | adverse event, all grades: increased triglycerides ([1]; 35 patients): 77% | adverse event, all grades: infection without concomitant neutropenia ([1]; 35 patients): 63% | adverse event, all grades: loss of appetite ([1]; 35 patients): 40% | adverse event, all grades: mucositis ([1]; 35 patients): 71% | adverse event, all grades: nausea ([1]; 35 patients): 49% | adverse event, all grades: neutropenia ([1]; 35 patients): 77% | adverse event, all grades: rash ([1]; 35 patients): 51% | adverse event, all grades: sensory neurophathy ([1]; 35 patients): 37% | adverse event, all grades: thrombocytopenia ([1]; 35 patients): 100% | adverse event, all grades: weight loss ([1]; 35 patients): 46% | grade 5 events (deaths on treatment) ([1]; 35 patients): No grade 5 events | patients requiring platelet transfusions ([1]; 35 patients): three | patients requiring red blood cell transfusions ([1]; 35 patients): four | patients with febrile neutropenia ([1]; 35 patients): two | patients with grade 3 infections without concomitant neutropenia ([1]; 35 patients): Thirteen | patients with infection (grade 3) with neutropenia ([1]; 35 patients): three | tolerability during the 30 minute infusion ([1]; 35 patients): well-tolerated | median time to discontinuation of treatment ([1]; 95% CI 3-6.2 months): 3.7 months | patients who went off treatment due to adverse reactions ([1]; of 28 patients who discontinued treatment): 7 | dose reductions necessary ([1]; starting dose 250 mg weekly): all but 4 patients | effect of citric acid on stability of CCI-779 [2]: enhanced the stability | overall response rate ([3]; 7/11 patients): 64% | number of PRs ([3]; 11 patients): 7 | overall response rate (ORR) ([4]; 13/34 patients, 250 mg IV weekly, 90% CI 24%-54%): 38% | median duration of response ([4]; 13 responders, 95% CI 4-13.2 months): 5.7 months | overall response rate ([4]; 18 patients, 250 mg IV days 1, 8, 15, 22 of 4 week cycle, 95% CI 24%-68%): 44.4% | patients progressed before the end of the cycle ([4]; 18 patients, 250 mg IV weekly): 3 patients | patients with complete response (CR) ([4]; 18 patients, 250 mg IV weekly): One | patients with partial response (PR) ([4]; 18 patients, 250 mg IV weekly): 7 patients | number of CR ([4]; 34 patients, 250 mg IV weekly): 1 | number of PRs ([4]; 34 patients, 250 mg IV weekly): 12 | median time to progression ([4]; 95% CI 3.8-9.4 months): 6.2 months | median overall survival ([4]; 95% CI 6.7 months to not yet reached): 12 months | responses after 4 months evaluation ([4]; of 13 responders): 1 | responses after 8 months evaluation ([4]; of 13 responders): 1 | responses after the first cycle evaluation ([4]; of 13 responders): Eight | responses documented after 3 cycles ([4]; of 13 responders): 3 | patients who have died [4, 5]: 22 patients | patients with disease progression [4, 5]: 29 patients | median time to response ([4]; range 1-8): 1 month | anti-tumor activity in relapsed MCL ([4]; single agent): substantial anti-tumor activity
